Reference: PMC11909088, “Synthesis, molecular docking and molecular dynamics simulations, drug-likeness studies, ADMET prediction and biological evaluation of novel pyrazole-carboxamides bearing sulfonamide moiety as potent carbonic anhydrase inhibitors” (Molecular Diversity, 2024)

Legend:
[1] = target: hCA II (Homo sapiens, UniProt P00918); test: Esterase activity inhibition of hCA II purified from human erythrocytes (IC50, Ki); type: biochemical; conditions: for Inhibition Type hCA II / Ki: Lineweaver-Burk plot; for Ki / IC50: NI = No Inhibition; for IC50: mean from three assays, spectrophotometric; for inhibition effect on hCA II (in words): esterase activity
Experimental: (§1) Esterase activities of purified hCA I and hCA II were determined according to the literature. Activity measurement has described in detail in our previous studies.
(§2) The method for determination of Ki values has described in detail in our previous studies. […] The data have linearized with Lineweaver–Burk plot in order to obtain Ki values.
(§3) IC50 and Ki values were expressed by averaging the results from triplicate experiments.
(§4) The enzymatic reaction, in a total volume of 3.0 mL, contained 1.4 mL of 0.05 M TRIS–SO4 buffer (pH 7.4), 1.0 mL of 3.0 mM 4-nitrophenylacetate, 0.5 mL H2O and 0.1 mL enzyme solution. A reference measurement was obtained by preparing the same cuvette without enzyme solution [46–49, 53].
(§5) Regression analysis graphs were drawn by plotting the percent enzyme activity versus inhibitor concentration and IC50 values were calculated.
(§6) Enzyme activity was also measured in the presence of the same substrate concentrations but in the absence of any inhibitor to determine the Vmax.

[2] = target: hCA I (Homo sapiens, UniProt P00915); test: Esterase activity inhibition of hCA I purified from human erythrocytes (IC50, Ki); type: biochemical; conditions: for Inhibition Type hCA I / Ki: Lineweaver-Burk plot; for Ki / IC50: NI = No Inhibition; for IC50: mean from three assays, spectrophotometric; for inhibition effect on hCA I (in words): esterase activity
hCA I, sequence (P00915 whole entry): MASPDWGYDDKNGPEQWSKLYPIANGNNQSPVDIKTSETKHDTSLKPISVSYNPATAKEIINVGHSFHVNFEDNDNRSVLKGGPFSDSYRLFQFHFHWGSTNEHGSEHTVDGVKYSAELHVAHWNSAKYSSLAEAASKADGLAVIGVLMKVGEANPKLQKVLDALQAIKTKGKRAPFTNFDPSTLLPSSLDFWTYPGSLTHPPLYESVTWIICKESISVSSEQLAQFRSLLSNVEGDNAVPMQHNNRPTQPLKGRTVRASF
Experimental: as §1, §2, §3, §4, §5, §6

Row | Structure (SMILES) | Inhibition Type hCA II [1] | Ki [1] | stronger inhibitory effect than AAZ for hCA II ([1]; compared with reference compound AAZ) | IC50 [1] | Inhibition Type hCA I [2] | Ki [2] | IC50 [2] | melting point | inhibition effect on hCA II (in words) [1] | inhibition effect on hCA I (in words) [2] | maximal decrease of hCA I activity ([2]; at most)
1 | NS(=O)(=O)c1cccc(NC(=O)c2nn(-c3ccccc3)c(-c3ccccc3)c2C(=O)c2ccccc2)c1 [Compound 6b, 4-benzoyl-1,5-diphenyl-N-(3-sulfamoylphenyl)-1H-pyrazole-3-carboxamide] | Non competitive | 0.03 µM | approximately fivefold | 0.139 µM | Non competitive | 0.237 µM | 0.463 µM |  |  |  | 
2 | NS(=O)(=O)c1ccccc1NC(=O)c1nn(-c2ccccc2)c(-c2ccccc2)c1C(=O)c1ccccc1 [Compound 6c, 4-benzoyl-1,5-diphenyl-N-(2-sulfamoylphenyl)-1H-pyrazole-3-carboxamide] | Non competitive | 4.23 µM |  | 6.41 µM | Non competitive | 3.37 µM | 6.2 µM | 233 to 235 °C |  |  | 
3 | O=C(Nc1ccc(S(=O)(=O)Nc2ccccn2)cc1)c1nn(-c2ccccc2)c(-c2ccccc2)c1C(=O)c1ccccc1 [Compound 6d, 4-benzoyl-1,5-diphenyl-N-(4-(N-(pyridin-2-yl)sulfamoyl)phenyl)-1H-pyrazole-3-carboxamide] |  |  |  |  |  |  |  | 239 to 241 °C | did not show any inhibition effect | did not show any inhibition effect | 
4 | O=C(Nc1ccc(S(=O)(=O)Nc2ncccn2)cc1)c1nn(-c2ccccc2)c(-c2ccccc2)c1C(=O)c1ccccc1 [Compound 6e, 4-benzoyl-1,5-diphenyl-N-(4-(N-(pyrimidin-2-yl)sulfamoyl)phenyl)-1H-pyrazole-3-carboxamide] |  |  |  |  |  |  |  | 244 to 246 °C | did not show any inhibition effect | did not show any inhibition effect | 
5 | Cc1ccnc(NS(=O)(=O)c2ccc(NC(=O)c3nn(-c4ccccc4)c(-c4ccccc4)c3C(=O)c3ccccc3)cc2)n1 [Compound 6f, 4-benzoyl-N-(4-(N-(4-methylpyrimidin-2-yl)sulfamoyl)phenyl)-1,5-diphenyl-1H-pyrazole-3-carboxamide] |  |  |  |  |  |  |  | 237 to 239 °C | did not show any inhibition effect | did not show any inhibition effect | 
6 | Cc1noc(NS(=O)(=O)c2ccc(NC(=O)c3nn(-c4ccccc4)c(-c4ccccc4)c3C(=O)c3ccccc3)cc2)c1C [Compound 6g, 4-benzoyl-N-(4-(N-(3,4-dimethylisoxazol-5-yl)sulfamoyl)phenyl)-1,5-diphenyl-1H-pyrazole-3-carboxamide] |  |  |  |  |  |  | 1.66 µM | 165 to 167 °C |  |  | ≤ 50%
7 | O=C(Nc1ccc(S(=O)(=O)Nc2nccs2)cc1)c1nn(-c2ccccc2)c(-c2ccccc2)c1C(=O)c1ccccc1 [Compound 6h, 4-benzoyl-1,5-diphenyl-N-(4-(N-(thiazol-2-yl)sulfamoyl)phenyl)-1H-pyrazole-3-carboxamide] |  |  |  |  |  |  |  | 252 to 254 °C | did not inhibit |  | 
8 | N=C(N)NS(=O)(=O)c1ccc(NC(=O)c2nn(-c3ccccc3)c(-c3ccccc3)c2C(=O)c2ccccc2)cc1 [Compound 6i, 4-benzoyl-N-(4-(N-carbamimidoylsulfamoyl)phenyl)-1,5-diphenyl-1H-pyrazole-3-carboxamide] |  |  |  |  |  |  |  | 280 to 282 °C | did not show any inhibition effect | did not show any inhibition effect | 
